Test results reported in US20260234161A1, “RIFABUTIN ANALOGS FOR THE TREATMENT OF BACTERIAL DISEASES” (BIOVERSYS AG, priority 2023, published 2026).
Converted amounts (≈) assume the structure as drawn. Where two headings read alike, the source gives them in different places.

Tests used:
Format in all cases: cell-based
[1] = system: S. aureus (UAMS-1625 strain); test: MIC by broth microdilution, S. aureus; details: Staphylococcus aureus, 20 h, read-out: MIC S. aureus
Protocol: (§1) MIC values were determined by broth microdilution method according to the CLSI guidelines with the following exceptions: MIC against A. baumannii was performed in RPMI medium supplemented with 10% FCS and MIC against M. abscessus was performed in Middlebrook 7H9 broth supplemented with Middlebrook ADC growth supplement (10%; see column “M. abscessus 7H9”). MIC forM abscessus was determined a second time in standard cation adjusted Mueller Hinton broth without growth supplement (see colum “M. abscessus MH”). All other MIC were performed in standard cation adjusted Mueller Hinton broth, supplemented with Middlebrook ADC growth supplement (5%) for the slow growing mycobacteria (M. xenopi, M. kansasii and M. avium).
(§2) The following procedure applies to all species tested, except forM xenopi. From a fresh culture plate (from overnight to several days depending on the bacteria), cells were resuspended in 0.9% (w/v) saline solution and bacterial inoculum was prepared in the respective testing medium with 5×10^5 CFU/mL. For M. xenopi, the inoculum was prepared from a fresh liquid culture (7H9+ADC). The appropriate volumes of a 10 mg/mL compound solution were directly dispensed in the 96-well assay plate using a digital dispenser to create two-fold dilution series from 32 to 0.002 μg/mL final concentration for A. baumannii and S. aureus; from 16 to 0.016 μg/mL for M. abscessus and M. avium; and from 1 to 6×10^−5 μg/mL for M. kansasii and M. xenopi. 100 μL of bacterial suspension was finally added to the compounds. Plates were covered and incubated without shaking at 35° C. for 20 hours for A. baumanii and S. aureus; at 30° C. for 4 days for M. abscessus; and at 37° C. for 7 days (at least) for M. kansasii (covered with aluminum foil to avoid light exposure), M. avium and M. xenopi. Every experiment contained an antibiotic as quality control. MIC was determined visually as the lowest concentration of a compound that prevents visible growth of the bacteria.
(§3) The in vitro activity of compounds described herein was determined against S. aureus (UAMS-1625 strain), A. baumannii (HUMC1 strain), M. abscessus (ATCC 19977), M. kansasii (ATCC 12478), M. avium (ATCC 25291), and M. xenopi (ATCC 19250).

[2] = system: A. baumannii (HUMC1 strain); test: MIC by broth microdilution, A. baumannii (RPMI + 10% FCS); details: Acinetobacter baumannii, read-out: MIC A. baumannii
Protocol: as §1, §2, §3

[3] = system: M. abscessus (ATCC 19977); test: MIC by broth microdilution, M. abscessus in Middlebrook 7H9 broth + ADC; details: Mycobacteroides abscessus, ATCC19977, 96 h, read-out: MIC M. abscessus 7H9
Protocol: as §1, §2, §3

[4] = system: M. abscessus (ATCC 19977); test: MIC by broth microdilution, M. abscessus in cation adjusted Mueller Hinton broth; details: Mycobacteroides abscessus, ATCC19977, 96 h, read-out: MIC M. abscessus MH
Protocol: as §1, §2, §3

[5] = HUMC1 strain, RPMI medium + 10% FCS, 35° C., 20 hours
[6] = ATCC 19977, Middlebrook 7H9 broth + ADC growth supplement (10%), 30° C., 4 days
[7] = ATCC 19977, cation adjusted Mueller Hinton broth without growth supplement, 30° C., 4 days

Compound	MIC [1] [µg/mL]	MIC [2, 5] [µg/mL]	MIC [3, 6] [µg/mL]	MIC [4, 7] [µg/mL]	MIC ([2]; 20 h) [µg/mL]	MIC [3] [µg/mL]	MIC [4] [µg/mL]
CO[C@H]1/C=C/O[C@@]2(C)Oc3c(C)c(O)c4c(c3C2=O)C2=NC3(CCN(CC(C)C)CC3)NC2=C(NC(=O)/C(C)=C\C=C\[C@H](C)[C@H](O)[C@@H](C)[C@@H](O)[C@@H](C)[C@H](OC(=O)N2CCCN(c3ccccn3)CC2)[C@@H]1C)C4=O [Compound 15]	0.06 (≈ 0.0595 µM)	0.008	0.5	1 (≈ 0.992 µM)	–	–	–
CO[C@H]1/C=C/O[C@@]2(C)Oc3c(C)c(O)c4c(c3C2=O)C2=NC3(CCN(CC(C)C)CC3)NC2=C(NC(=O)/C(C)=C\C=C\[C@H](C)[C@H](O)[C@@H](C)[C@@H](O)[C@@H](C)[C@H](OC(=O)N2CCN(CCN3CCCCC3)CC2)[C@@H]1C)C4=O [Compound 12]	0.125 (≈ 0.122 µM)	≤ 0.002	0.5	1 (≈ 0.972 µM)	–	–	–
CO[C@H]1/C=C/O[C@@]2(C)Oc3c(C)c(O)c4c(c3C2=O)C2=NC3(CCN(CC(C)C)CC3)NC2=C(NC(=O)/C(C)=C\C=C\[C@H](C)[C@H](O)[C@@H](C)[C@@H](O)[C@@H](C)[C@H](OC(=O)N2CCN(Cc3ccccc3)CC2)[C@@H]1C)C4=O [Compound 17]	0.25 (≈ 0.248 µM)	–	–	–	0.125	0.125	1 (≈ 0.993 µM)
CO[C@H]1/C=C/O[C@@]2(C)Oc3c(C)c(O)c4c(c3C2=O)C2=NC3(CCN(CC(C)C)CC3)NC2=C(NC(=O)/C(C)=C\C=C\[C@H](C)[C@H](O)[C@@H](C)[C@@H](O)[C@@H](C)[C@H](OC(=O)N2CCC(Nc3cccnc3)CC2)[C@@H]1C)C4=O [Compound 5]	0.125 (≈ 0.124 µM)	0.004	1	4 (≈ 3.97 µM)	–	–	–
CO[C@H]1/C=C/O[C@@]2(C)Oc3c(C)c(O)c4c(c3C2=O)C2=NC3(CCN(CC(C)C)CC3)NC2=C(NC(=O)/C(C)=C\C=C\[C@H](C)[C@H](O)[C@@H](C)[C@@H](O)[C@@H](C)[C@H](OC(=O)N2CCC(N(C)C)CC2)[C@@H]1C)C4=O [Compound 3]	0.03 (≈ 0.0313 µM)	≤ 0.002	0.5	4 (≈ 4.17 µM)	–	–	–
CO[C@H]1/C=C/O[C@@]2(C)Oc3c(C)c(O)c4c(c3C2=O)C2=NC3(CCN(CC(C)C)CC3)NC2=C(NC(=O)/C(C)=C\C=C\[C@H](C)[C@H](O)[C@@H](C)[C@@H](O)[C@@H](C)[C@H](OC(=O)N2CCC3(CCN(CCC(C)C)CC3)CC2)[C@@H]1C)C4=O [Compound 71]	0.25 (≈ 0.237 µM)	0.008	–	0.25 (≈ 0.237 µM)	–	–	–
CO[C@H]1/C=C/O[C@@]2(C)Oc3c(C)c(O)c4c(c3C2=O)C2=NC3(CCN(CC(C)C)CC3)NC2=C(NC(=O)/C(C)=C\C=C\[C@H](C)[C@H](O)[C@@H](C)[C@@H](O)[C@@H](C)[C@H](OC(=O)N2CC3(CCN(CC5CCCCC5)CC3)C2)[C@@H]1C)C4=O [Compound 66]	0.125 (≈ 0.119 µM)	0.004	–	0.125 (≈ 0.119 µM)	–	–	–
CO[C@H]1/C=C/O[C@@]2(C)Oc3c(C)c(O)c4c(c3C2=O)C2=NC3(CCN(CC(C)C)CC3)NC2=C(NC(=O)/C(C)=C\C=C\[C@H](C)[C@H](O)[C@@H](C)[C@@H](O)[C@@H](C)[C@H](OC(=O)N2CCC3(CC2)CCN(C(C)C)CC3)[C@@H]1C)C4=O [Compound 69]	0.125 (≈ 0.122 µM)	0.002	–	1 (≈ 0.973 µM)	–	–	–
CO[C@H]1/C=C/O[C@@]2(C)Oc3c(C)c(O)c4c(c3C2=O)C2=NC3(CCN(CC(C)C)CC3)NC2=C(NC(=O)/C(C)=C\C=C\[C@H](C)[C@H](O)[C@@H](C)[C@@H](O)[C@@H](C)[C@H](OC(=O)N2CCN(CCOCCO)CC2)[C@@H]1C)C4=O [Compound 44]	0.03 (≈ 0.0298 µM)	≤ 0.016	–	4 (≈ 3.98 µM)	–	–	–
CO[C@H]1/C=C/O[C@@]2(C)Oc3c(C)c(O)c4c(c3C2=O)C2=NC3(CCN(CC(C)C)CC3)NC2=C(NC(=O)/C(C)=C\C=C\[C@H](C)[C@H](O)[C@@H](C)[C@@H](O)[C@@H](C)[C@H](OC(=O)N2CCN(Cc3c(C)noc3C)CC2)[C@@H]1C)C4=O [Compound 38]	0.125 (≈ 0.122 µM)	≤ 0.016	–	1 (≈ 0.974 µM)	–	–	–
CO[C@H]1/C=C/O[C@@]2(C)Oc3c(C)c(O)c4c(c3C2=O)C2=NC3(CCN(CC(C)C)CC3)NC2=C(NC(=O)/C(C)=C\C=C\[C@H](C)[C@H](O)[C@@H](C)[C@@H](O)[C@@H](C)[C@H](OC(=O)NC2CCN(C3CCOCC3)CC2)[C@@H]1C)C4=O [Compound 78]	0.06 (≈ 0.0591 µM)	–	–	–	≤ 0.001	–	2 (≈ 1.97 µM)
CO[C@H]1/C=C/O[C@@]2(C)Oc3c(C)c(O)c4c(c3C2=O)C2=NC3(CCN(CC(C)C)CC3)NC2=C(NC(=O)/C(C)=C\C=C\[C@H](C)[C@H](O)[C@@H](C)[C@@H](O)[C@@H](C)[C@H](OC(=O)N2CCC(N3CCCC3)CC2)[C@@H]1C)C4=O [Compound 62]	0.06 (≈ 0.0609 µM)	≤ 0.016	–	1 (≈ 1.01 µM)	–	–	–
CO[C@H]1/C=C/O[C@@]2(C)Oc3c(C)c(O)c4c(c3C2=O)C2=NC3(CCN(CC(C)C)CC3)NC2=C(NC(=O)/C(C)=C\C=C\[C@H](C)[C@H](O)[C@@H](C)[C@@H](O)[C@@H](C)[C@H](OC(=O)N2CCCC3(CN(CC5CCCCC5)C3)C2)[C@@H]1C)C4=O [Compound 65]	0.5 (≈ 0.475 µM)	0.004	–	0.125 (≈ 0.119 µM)	–	–	–
CO[C@H]1/C=C/O[C@@]2(C)Oc3c(C)c(O)c4c(c3C2=O)C2=NC3(CCN(CC(C)C)CC3)NC2=C(NC(=O)/C(C)=C\C=C\[C@H](C)[C@H](O)[C@@H](C)[C@@H](O)[C@@H](C)[C@H](OC(=O)N2CCNCC2)[C@@H]1C)C4=O [Compound 51]	0.016 (≈ 0.0174 µM)	≤ 0.001	–	4 (≈ 4.36 µM)	–	–	–
CO[C@H]1/C=C/O[C@@]2(C)Oc3c(C)c(O)c4c(c3C2=O)C2=NC3(CCN(CC(C)C)CC3)NC2=C(NC(=O)/C(C)=C\C=C\[C@H](C)[C@H](O)[C@@H](C)[C@@H](O)[C@@H](C)[C@H](OC(=O)N2CCN(CC(C)C)CC2)[C@@H]1C)C4=O [Compound 54]	0.125 (≈ 0.128 µM)	0.03	–	0.06 (≈ 0.0617 µM)	–	–	–
CCN1CCC2(CC1)CCN(C(=O)O[C@H]1[C@H](C)[C@H](O)[C@H](C)[C@@H](O)[C@@H](C)/C=C/C=C(/C)C(=O)NC3=C4NC5(CCN(CC(C)C)CC5)N=C4c4c(c(O)c(C)c5c4C(=O)[C@@](C)(O/C=C/[C@H](OC)[C@H]1C)O5)C3=O)CC2 [Compound 68]	0.06 (≈ 0.0592 µM)	0.003	–	1 (≈ 0.987 µM)	–	–	–
CO[C@H]1/C=C/O[C@@]2(C)Oc3c(C)c(O)c4c(c3C2=O)C2=NC3(CCN(CC(C)C)CC3)NC2=C(NC(=O)/C(C)=C\C=C\[C@H](C)[C@H](O)[C@@H](C)[C@@H](O)[C@@H](C)[C@H](OC(=O)N2CCCN(CC3CCCCC3)CC2)[C@@H]1C)C4=O [Compound 41]	1 (≈ 0.973 µM)	0.06	–	0.125 (≈ 0.122 µM)	–	–	–
COCCN1CCN(C(=O)O[C@H]2[C@H](C)[C@H](O)[C@H](C)[C@@H](O)[C@@H](C)/C=C/C=C(/C)C(=O)NC3=C4NC5(CCN(CC(C)C)CC5)N=C4c4c(c(O)c(C)c5c4C(=O)[C@@](C)(O/C=C/[C@H](OC)[C@H]2C)O5)C3=O)CC1 [Compound 48]	0.06 (≈ 0.0615 µM)	≤ 0.016	–	1 (≈ 1.03 µM)	–	–	–
CO[C@H]1/C=C/O[C@@]2(C)Oc3c(C)c(O)c4c(c3C2=O)C2=NC3(CCN(CC(C)C)CC3)NC2=C(NC(=O)/C(C)=C\C=C\[C@H](C)[C@H](O)[C@@H](C)[C@@H](O)[C@@H](C)[C@H](OC(=O)N2CCC3(CCN(CC(C)C)CC3)CC2)[C@@H]1C)C4=O [Compound 70]	0.125 (≈ 0.12 µM)	0.004	–	0.25 (≈ 0.24 µM)	–	–	–
CO[C@H]1/C=C/O[C@@]2(C)Oc3c(C)c(O)c4c(c3C2=O)C2=NC3(CCN(CC(C)C)CC3)NC2=C(NC(=O)/C(C)=C\C=C\[C@H](C)[C@H](O)[C@@H](C)[C@@H](O)[C@@H](C)[C@H](OC(=O)N2CCN(Cc3nccn3C)CC2)[C@@H]1C)C4=O [Compound 37]	0.03 (≈ 0.0297 µM)	≤ 0.016	–	2 (≈ 1.98 µM)	–	–	–
CO[C@H]1/C=C/O[C@@]2(C)Oc3c(C)c(O)c4c(c3C2=O)C2=NC3(CCN(CC(C)C)CC3)NC2=C(NC(=O)/C(C)=C\C=C\[C@H](C)[C@H](O)[C@@H](C)[C@@H](O)[C@@H](C)[C@H](OC(=O)NC2CCN(C(C)C)CC2)[C@@H]1C)C4=O [Compound 76]	0.03 (≈ 0.0308 µM)	≤ 0.001	–	2 (≈ 2.06 µM)	–	–	–
